# According to ChEMBL document CHEMBL1135259, “Azapeptides as inhibitors of the hepatitis C virus NS3 serine protease” (Bioorg Med Chem Lett, 2002):
# Target: NS3 (Hepatitis C virus, UniProt A3EZJ3)
# Test: Binding affinity against Hepatitis C virus NS3 protease
# Parameters: species or system Hepacivirus hominis
# Sequence of NS3 (A3EZJ3 whole entry): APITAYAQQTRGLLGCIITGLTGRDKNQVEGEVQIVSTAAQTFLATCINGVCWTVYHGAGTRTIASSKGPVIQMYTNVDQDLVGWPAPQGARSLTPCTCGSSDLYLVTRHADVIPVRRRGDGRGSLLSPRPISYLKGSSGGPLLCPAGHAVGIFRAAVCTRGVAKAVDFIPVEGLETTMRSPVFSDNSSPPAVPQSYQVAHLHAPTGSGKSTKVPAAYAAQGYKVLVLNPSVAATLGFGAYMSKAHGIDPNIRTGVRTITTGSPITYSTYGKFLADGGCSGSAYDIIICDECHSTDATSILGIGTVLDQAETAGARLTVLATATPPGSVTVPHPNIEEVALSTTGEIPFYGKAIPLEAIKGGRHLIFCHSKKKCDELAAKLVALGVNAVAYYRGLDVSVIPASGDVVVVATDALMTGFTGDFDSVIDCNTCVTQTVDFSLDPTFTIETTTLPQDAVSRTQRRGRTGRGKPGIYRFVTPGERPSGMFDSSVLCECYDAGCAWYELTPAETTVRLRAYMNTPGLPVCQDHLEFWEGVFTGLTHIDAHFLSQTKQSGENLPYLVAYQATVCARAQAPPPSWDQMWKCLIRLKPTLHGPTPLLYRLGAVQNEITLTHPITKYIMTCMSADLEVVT
row,SMILES,Ki [µM]
1,CCCN(NC(=O)[C@H]1CCCN1C(=O)[C@@H](NC(=O)[C@@H](NC(=O)[C@H](CC(=O)O)NC(C)=O)C(C)C)C(C)C)C(=O)Oc1ccc([N+](=O)[O-])cc1,7
2,CCCN(NC(=O)[C@H]1CCCN1C(=O)[C@@H](NC(=O)[C@@H](NC(=O)[C@H](CC(=O)O)NC(=O)[C@H](CCC(=O)O)NC(=O)[C@@H](NC(=O)[C@H](CC(=O)O)NC(C)=O)[C@@H](C)O)C(C)C)C(C)C)C(=O)c1ccc(/N=N\c2ccc([N+](=O)[O-])cc2)cc1,> 100
3,CCCN(NC(=O)[C@H]1CCCN1C(=O)[C@@H](NC(=O)[C@@H](NC(=O)[C@H](CC(=O)O)NC(=O)[C@H](CCC(=O)O)NC(=O)[C@@H](NC(=O)[C@H](CC(=O)O)NC(C)=O)[C@@H](C)O)C(C)C)C(C)C)C(=O)OCc1ccccc1,80
4,CCCC(=O)N(CCC)NC(=O)[C@H]1CCCN1C(=O)[C@@H](NC(=O)[C@@H](NC(=O)[C@H](CC(=O)O)NC(=O)[C@H](CCC(=O)O)NC(=O)[C@@H](NC(=O)[C@H](CC(=O)O)NC(C)=O)[C@@H](C)O)C(C)C)C(C)C,> 100
5,CCCN(NC(=O)[C@H]1CCCN1C(=O)[C@@H](NC(=O)[C@@H](NC(=O)[C@H](CC(=O)O)NC(=O)[C@H](CCC(=O)O)NC(=O)[C@@H](NC(=O)[C@H](CC(=O)O)NC(C)=O)[C@@H](C)O)C(C)C)C(C)C)C(=O)c1c(F)c(F)c(F)c(F)c1F,> 100
6,CCCCC(=O)N(CCC)NC(=O)[C@H]1CCCN1C(=O)[C@@H](NC(=O)[C@@H](NC(=O)[C@H](CC(=O)O)NC(=O)[C@H](CCC(=O)O)NC(=O)[C@@H](NC(=O)[C@H](CC(=O)O)NC(C)=O)[C@@H](C)O)C(C)C)C(C)C,> 100
7,CCCN(NC(=O)[C@H]1CCCN1C(=O)[C@@H](NC(=O)[C@@H](NC(=O)[C@H](CC(=O)O)NC(=O)[C@H](CCC(=O)O)NC(=O)[C@@H](NC(=O)[C@H](CC(=O)O)NC(C)=O)[C@@H](C)O)C(C)C)C(C)C)C(=O)Sc1ccc(Cl)cc1,100
8,CCCN(NC(=O)[C@H]1CCCN1C(=O)[C@@H](NC(=O)[C@@H](NC(=O)[C@H](CC(=O)O)NC(=O)[C@H](CCC(=O)O)NC(C)=O)C(C)C)C(C)C)C(=O)N[C@@H](CO)C(=O)N[C@@H](CCSC)C(=O)N[C@@H](CO)C(N)=O,200
9,CCCN(NC(=O)[C@H]1CCCN1C(=O)[C@@H](NC(=O)[C@@H](NC(=O)[C@H](CC(=O)O)NC(=O)[C@H](CCC(=O)O)NC(=O)[C@@H](NC(=O)[C@H](CC(=O)O)NC(C)=O)[C@@H](C)O)C(C)C)C(C)C)S(=O)(=O)CCl,> 100
10,CCCN(NC(=O)[C@H]1CCCN1C(=O)[C@@H](NC(=O)[C@@H](NC(=O)[C@H](CC(=O)O)NC(=O)[C@H](CCC(=O)O)NC(=O)[C@@H](NC(=O)[C@H](CC(=O)O)NC(C)=O)[C@@H](C)O)C(C)C)C(C)C)C(=O)c1ccc(C(F)(F)F)cc1,> 100
11,CCCN(NC(=O)[C@H]1CCCN1C(=O)[C@@H](NC(=O)[C@@H](NC(=O)[C@H](CC(=O)O)NC(=O)[C@H](CCC(=O)O)NC(=O)[C@@H](NC(=O)[C@H](CC(=O)O)NC(C)=O)[C@@H](C)O)C(C)C)C(C)C)C(=O)Oc1ccccc1,8
12,CCN(NC(=O)[C@H]1CCCN1C(=O)[C@@H](NC(=O)[C@@H](NC(=O)[C@H](CC(=O)O)NC(=O)[C@H](CCC(=O)O)NC(=O)[C@@H](NC(=O)[C@H](CC(=O)O)NC(C)=O)[C@@H](C)O)C(C)C)C(C)C)C(=O)OC(Cl)C(Cl)(Cl)Cl (stereo not given in full),0.9
13,CCCN(NC(=O)[C@H]1CCCN1C(=O)[C@@H](NC(=O)[C@@H](NC(=O)[C@H](CC(=O)O)NC(=O)[C@H](CCC(=O)O)NC(C)=O)C(C)C)C(C)C)C(=O)N[C@@H](CO)C(=O)N[C@@H](CCSC)C(=O)N[C@@H](CO)C(=O)N[C@@H](Cc1ccc(O)cc1)C(=O)N[C@H](C(=O)N[C@@H](Cc1c[nH]c2ccccc12)C(=O)N[C@H](C(=O)NCC(=O)N[C@@H](CCCCN)C(=O)O)[C@@H](C)O)[C@@H](C)O,20
14,CCCN(NC(=O)[C@H]1CCCN1C(=O)[C@@H](NC(=O)[C@@H](NC(=O)[C@H](CC(=O)O)NC(=O)[C@H](CCC(=O)O)NC(=O)[C@@H](NC(=O)[C@H](CC(=O)O)NC(C)=O)[C@@H](C)O)C(C)C)C(C)C)C(=O)CBr,> 100
15,CCN(NC(=O)[C@H]1CCCN1C(=O)[C@@H](NC(=O)[C@@H](NC(=O)[C@H](CC(=O)O)NC(=O)[C@H](CCC(=O)O)NC(=O)[C@@H](NC(=O)[C@H](CC(=O)O)NC(C)=O)[C@@H](C)O)C(C)C)C(C)C)C(=O)Oc1ccc([N+](=O)[O-])cc1,> 100
16,CCCN(NC(=O)[C@H]1CCCN1C(=O)[C@@H](NC(=O)[C@@H](NC(=O)[C@H](CC(=O)O)NC(=O)[C@H](CCC(=O)O)NC(C)=O)C(C)C)C(C)C)C(=O)Oc1ccc([N+](=O)[O-])cc1,6
17,CCCN(NC(=O)[C@H]1CCCN1C(=O)[C@@H](NC(=O)[C@@H](NC(=O)[C@H](CC(=O)O)NC(=O)[C@H](CCC(=O)O)NC(=O)[C@@H](NC(=O)[C@H](CC(=O)O)NC(C)=O)[C@@H](C)O)C(C)C)C(C)C)C(=O)CC,> 100
18,CCCN(NC(=O)[C@H]1CCCN1C(=O)[C@@H](NC(=O)[C@@H](NC(=O)[C@H](CC(=O)O)NC(=O)[C@H](CCC(=O)O)NC(=O)[C@@H](NC(=O)[C@H](CC(=O)O)NC(C)=O)[C@@H](C)O)C(C)C)C(C)C)C(=O)C(F)(F)F,> 100

row,SMILES,Ki [µM]
1,CCCN(NC(=O)[C@H]1CCCN1C(=O)[C@@H](NC(=O)[C@@H](NC(C)=O)C(C)C)C(C)C)C(=O)Oc1ccc([N+](=O)[O-])cc1,100
2,CCCN(NC(=O)[C@H]1CCCN1C(=O)[C@@H](NC(=O)[C@@H](NC(=O)[C@H](CC(=O)O)NC(=O)[C@H](CCC(=O)O)NC(=O)[C@@H](NC(=O)[C@H](CC(=O)O)NC(C)=O)[C@@H](C)O)C(C)C)C(C)C)C(=O)c1ccc([N+](=O)[O-])cc1,> 100
3,CCCN(NC(=O)[C@H]1CCCN1C(=O)[C@@H](NC(=O)[C@@H](NC(=O)[C@H](CC(=O)O)NC(=O)[C@H](CCC(=O)O)NC(=O)[C@@H](NC(=O)[C@H](CC(=O)O)NC(C)=O)[C@@H](C)O)C(C)C)C(C)C)C(=O)Oc1ccccc1[N+](=O)[O-],9
4,CCCN(NC(=O)[C@H]1CCCN1C(=O)[C@@H](NC(=O)[C@@H](NC(=O)[C@H](CC(=O)O)NC(=O)[C@H](CCC(=O)O)NC(=O)[C@@H](NC(=O)[C@H](CC(=O)O)NC(C)=O)[C@@H](C)O)C(C)C)C(C)C)C(=O)OCC(Cl)(Cl)Cl,14
5,CCCN(NC(=O)[C@H]1CCCN1C(=O)[C@@H](NC(=O)[C@@H](NC(=O)[C@H](CC(=O)O)NC(=O)[C@H](CCC(=O)O)NC(=O)[C@@H](NC(=O)[C@@H](N)CC(=O)O)[C@@H](C)O)C(C)C)C(C)C)C(=O)N[C@@H](CO)C(=O)N[C@@H](CCSC)C(=O)N[C@@H](CO)C(=O)N[C@@H](Cc1ccc(O)cc1)C(=O)N[C@H](C(=O)N[C@@H](Cc1c[nH]c2ccccc12)C(=O)N[C@H](C(=O)NCC(=O)N[C@@H](CCCCN)C(=O)O)[C@@H](C)O)[C@@H](C)O,20
6,CCCN(NC(=O)[C@H]1CCCN1C(=O)[C@@H](NC(=O)[C@@H](NC(=O)[C@H](CC(=O)O)NC(=O)[C@H](CCC(=O)O)NC(=O)[C@@H](NC(=O)[C@H](CC(=O)O)NC(C)=O)[C@@H](C)O)C(C)C)C(C)C)C(=O)c1ccc(C#N)cc1,> 100
7,CCCN(NC(=O)[C@H]1CCCN1C(=O)[C@@H](NC(=O)[C@@H](NC(=O)[C@H](CC(=O)O)NC(=O)[C@H](CCC(=O)O)NC(=O)[C@@H](NC(=O)[C@H](CC(=O)O)NC(C)=O)[C@@H](C)O)C(C)C)C(C)C)C(=O)OC(Cl)C(Cl)(Cl)Cl (stereo not given in full),0.2
8,CSCC[C@H](NC(=O)[C@H](CO)NC(=O)NNC(=O)[C@H]1CCCN1C(=O)[C@@H](NC(=O)[C@@H](NC(=O)[C@H](CC(=O)O)NC(=O)[C@H](CCC(=O)O)NC(=O)[C@@H](NC(=O)[C@H](CC(=O)O)NC(C)=O)[C@@H](C)O)C(C)C)C(C)C)C(=O)N[C@@H](CO)C(=O)N[C@@H](Cc1ccc(O)cc1)C(=O)N[C@H](C(=O)N[C@@H](Cc1c[nH]c2ccccc12)C(=O)N[C@H](C(=O)NCC(=O)N[C@@H](CCCCN)C(=O)O)[C@@H](C)O)[C@@H](C)O,> 200
9,CCCN(NC(=O)[C@H]1CCCN1C(=O)[C@@H](NC(=O)[C@@H](NC(=O)[C@H](CC(=O)O)NC(=O)[C@H](CCC(=O)O)NC(=O)[C@@H](NC(=O)[C@H](CC(=O)O)NC(C)=O)[C@@H](C)O)C(C)C)C(C)C)C(=O)N[C@@H](CO)C(=O)N[C@@H](CCSC)C(=O)N[C@@H](CO)C(=O)O,200
10,CCCN(NC(=O)[C@H]1CCCN1C(=O)[C@@H](NC(=O)[C@@H](NC(=O)[C@H](CC(=O)O)NC(=O)[C@H](CCC(=O)O)NC(=O)[C@@H](NC(=O)[C@H](CC(=O)O)NC(C)=O)[C@@H](C)O)C(C)C)C(C)C)C(=O)OCc1ccc([N+](=O)[O-])cc1,45
11,CCCN(NC(=O)[C@H]1CCCN1C(=O)[C@@H](NC(=O)[C@@H](NC(=O)[C@H](CC(=O)O)NC(=O)[C@H](CCC(=O)O)NC(=O)[C@@H](NC(=O)[C@H](CC(=O)O)NC(C)=O)[C@@H](C)O)C(C)C)C(C)C)C(C)=O,> 100
12,CCCN(NC(=O)[C@H]1CCCN1C(=O)[C@@H](NC(=O)[C@@H](NC(=O)[C@H](CC(=O)O)NC(=O)[C@H](CCC(=O)O)NC(=O)[C@@H](NC(=O)[C@H](CC(=O)O)NC(C)=O)[C@@H](C)O)C(C)C)C(C)C)C(=O)c1cc([N+](=O)[O-])cc([N+](=O)[O-])c1,> 100
13,CCCN(NC(=O)[C@H]1CCCN1C(=O)[C@@H](NC(=O)[C@@H](NC(=O)[C@H](CC(=O)O)NC(=O)[C@H](CCC(=O)O)NC(=O)[C@@H](NC(=O)[C@H](CC(=O)O)NC(C)=O)[C@@H](C)O)C(C)C)C(C)C)C(=O)c1ccc(-c2ccccc2)cc1,> 100
14,CCCN(NC(=O)[C@H]1CCCN1C(=O)[C@@H](NC(=O)[C@@H](NC(=O)[C@H](CC(=O)O)NC(=O)[C@H](CCC(=O)O)NC(=O)[C@@H](NC(=O)[C@H](CC(=O)O)NC(C)=O)[C@@H](C)O)C(C)C)C(C)C)C(=O)Oc1ccc(Cl)cc1,16
15,CCCN(NC(=O)[C@H]1CCCN1C(=O)[C@@H](NC(=O)[C@@H](NC(=O)[C@H](CC(=O)O)NC(=O)[C@H](CCC(=O)O)NC(=O)[C@@H](NC(=O)[C@H](CC(=O)O)NC(C)=O)[C@@H](C)O)C(C)C)C(C)C)C(=O)C(=O)OCC,> 100
16,CCCN(NC(=O)[C@H]1CCCN1C(=O)[C@@H](NC(=O)[C@@H](NC(=O)[C@H](CC(=O)O)NC(=O)[C@H](CCC(=O)O)NC(=O)[C@@H](NC(=O)[C@H](CC(=O)O)NC(C)=O)[C@@H](C)O)C(C)C)C(C)C)C(=O)c1ccc(S(=O)(=O)F)cc1,> 100
17,CCCN(NC(=O)[C@H]1CCCN1C(=O)[C@@H](NC(=O)[C@@H](NC(=O)[C@H](CC(=O)O)NC(=O)[C@H](CCC(=O)O)NC(=O)[C@@H](NC(=O)[C@H](CC(=O)O)NC(C)=O)[C@@H](C)O)C(C)C)C(C)C)C(=O)Sc1ccccc1,160
